Test results taken from US20250032580A1, “USE OF ADNF POLYPEPTIDES IN THERAPY” (RAMOT AT TEL-AVIV UNIVERSITY LTD., priority 2021, published 2025).

Assays:
SHANK3 mice = test: Eubacteriaceae (EubV3) microbiota; format: in vivo, mouse; conditions: data not shown
Tyr mice [1] = test: AT8 (hyperphosphorylated Tau) immunohistochemistry; format: in vivo, mouse; parameters: key to NAP efficacy: tauopathy, hyperphosphorylated Tau deposits: corrections by NAP treatment (+)
Procedure: AT8 Immunohistochemistry—experiment was performed as previously described (100). Mice were treated for 6 weeks with daily intranasal DD/NAP and were euthanized at 10.21±0.05 weeks of age.

[2] = Ivashko-Pachima and Gozes 2020; cited from earlier work
Tyr-GFP mice = test: Dendritic spine quantitation; format: in vivo, mouse; parameters: key to NAP efficacy: synaptic structural alterations: corrections by NAP treatment (+)
Procedure: Spine quantitation—For determination of dendritic spine morphology, the Tyr-GFP mouse model was used and generated as described(12). 1.5-2-month-old Tyr-GFP-mice were treated for 9 consecutive days with either intraperitoneal NAP injection (0.4 μg/0.1 ml saline) or with 0.1 ml saline. On day 9, mice were perfused, and brains were subjected to immunohistochemistry and imaging (12).

Tyr mice [3] = test: Behavioral assessments (odor discrimination and others); format: in vivo, mouse; parameters: key to NAP efficacy: cognitive impairments, behavioral deficits: corrections by NAP treatment (+)
Procedure: Animals—Animals were housed under a 12-hour light/dark cycle, with food and water ad-libitum. Mouse pups were subcutaneously administrated with NAP [having an amino acid sequence NAPVSIPQ (SEQ ID NO: 2), 25 μg NAP/1 ml saline] as described (8, 12). At 21 days of age mice were administered daily intranasal NAP in vehicle solution (“DD”—7.5 mg/ml of NaCl, 1.7 mg/ml of citric acid, 3 mg/ml of disodium phosphate dihydrate, and 0.2 mg/ml of 50% benzalkonium chloride solution) (0.5 μg NAP/5p1 DD) (8, 9, 12, and U.S. Pat. No. 10,912,819 to Gozes). These mice continued to behavioral analysis as described hereinbelow. The noninvasive intranasal route was chosen as these experiments required daily handling and administration. Age (weeks) of mice during behavioral experiments (mean±SEM) was as follows: Catwalk-9.23±0.15, grooming-10±0.15, social approach-10.5±0.12, odor-discrimination-12.12±0.13, hanging-wire-13±0.14, hotplate-13.18±0.13. Group size was determined following previous experiments (12). Pups were randomly allocated to either the NAP or DD group according to sex and genotype. […]
Novel object recognition: Briefly, the open field test was used for the first day of habituation since both tests are conducted in the same arena. […] The time spent sniffing/touching each object was measured using the EthoVision XT video tracking system and software (Noldus Inc. Leesburg, VA). Data were analyzed using the discrimination capacity formula: D2=(b−a)/(a+b), where ‘a’ designated the time of exploration of the familiar object and ‘b’ designated the time of exploration of the novel object.
Social approach: A plexiglas box was divided into three adjacent chambers, each 20 cm (length)×40.5 cm (width)×22 cm (height), separated by two removable doors. […] The next day, each subject mouse was tested in an experiment with three phases, (measured with a simple timer): I and II (5 minutes long), the habituation phases (ensuring no bias), and III (10 minutes long), the experimental phase. […]

[4] = tested on: Shank3-Adnp-actin interactions; test: Actin co-immunoprecipitations from mouse brain extracts
Description: De novo heterozygous mutations in ADNP reproduced the autistic ADNP syndrome. ADNP mutations impair microtubule (MT) function, essential for synaptic activity. The ADNP MT-associating fragment NAPVSIPQ (NAP) (SEQ ID NO 2) contains an MT end-binding protein interacting domain, SxIP (mimicking the active-peptide, SKIP, SEQ ID NO 21). The inventors hypothesized that not all ADNP mutations are similarly deleterious and that the NAPV portion of NAPVSIPQ is biologically active. Using the eukaryotic linear motif (ELM) resource, the inventors identified a Src homology 3 (SH3) domain-ligand association site in NAP responsible for controlling signaling pathways regulating the cytoskeleton, namely NAPVSIP (SEQ ID NO: 2). Altogether, the inventors mapped multiple SH3-binding sites in ADNP. […] Site-directed-mutagenesis, abolishing the p.Lys408Valfs*31 SH3-binding motif, produced MT toxicity. […] Lastly, SH3 and multiple ankyrin repeat domains protein 3 (SHANK3), a major autism gene product, interact with the cytoskeleton through an actin-binding motif to modify behavior.

Tyr mice [5] = test: RNA seq of mouse spleens; format: in vivo; parameters: key to NAP efficacy: gene expression patterns: corrections by NAP treatment (+)
Procedure: RNA seq—Total RNA was extracted from 14-week-old mouse spleens and sequenced using standard methods on NextSeq500 system (Illumina) as detailed. Data were analyzed as previously described (9).

[6] = Tyr mouse, first symbol of cell
[7] = male Tyr mice, 6 weeks daily intranasal NAP
[8] = males and WT females, data not shown

With `CC[C@H](C)[C@H](NC(=O)[C@H](CO)NC(=O)[C@@H](NC(=O)[C@@H]1CCCN1C(=O)[C@H](C)NC(=O)[C@@H](N)CC(N)=O)C(C)C)C(=O)N1CCC[C@H]1C(=O)N[C@@H](CCC(N)=O)C(=O)O` [NAP, NAPVSIPQ] the “EubV3 trend to change as a consequence of the SHANK3 mutation” value (SHANK3 mice) was “this trend was not observed in the treated mice”, the “Combined AT8- and AT180-positive cells” value (Tyr mice [1]; Tyr mice, both sexes, data not shown) was “correction by NAP in both sexes” and the “NAP efficacy: tauopathy, hyperphosphorylated Tau deposits” value (Tyr mice [1]; [6]) was “+/+”. For the same compound, the AT8 staining (Tyr mice [1]; WT males, data not shown) was “did not display a NAP effect”, the “Decrease of AT8 positive cells in the hippocampus” value (Tyr mice [1]; [7]) was roughly 2.57 fold and the “Reversal of AT8 staining in the visual cortex” value (Tyr mice [1]; [7]) was roughly 2 fold. For the same compound, the Cell penetration [2] was “bioavailable by endocytosis”, the “NAP efficacy: synaptic structural alterations” value (Tyr-GFP mice; [6]) was “+/+” and the “Mushroom shaped spine density, motor cortex” value (Tyr-GFP mice; female Tyr mice) was “significantly affecting”. For the same compound, the “PSD95 volume in the hippocampus” value (Tyr-GFP mice; female Tyr mice) was “complete resolution”, the “Increase in motor cortex L5 layer spine density” value (Tyr-GFP mice; female Tyr mice, i.p. NAP, 9 days) was roughly 17% and the “Hippocampal total spines and subtypes” value (Tyr-GFP mice; females and WT males, data not shown) was “no genotype or treatment changes in females or treatment effect on WT males”. For the same compound, the “Increase in CA1 hippocampal dendritic spine density” value (Tyr-GFP mice; male Tyr mice, i.p. NAP 0.4 μg/0.1 ml saline, 9 days) was roughly 23%, the “Motor cortex spine density” value (Tyr-GFP mice; [8]) was “No genotype or treatment changes were observed in males and no treatment effect was found on WT females” and the “Motor cortex spine subtypes” value (Tyr-GFP mice; [8]) was “No NAP effect”. For the same compound, the Odor discrimination (Tyr mice [3]; Tyr mice, daily intranasal NAP, data not shown) was “NAP reversal in females”, the “NAP efficacy: cognitive impairments, behavioral deficits” value (Tyr mice [3]; Tyr mouse (odor), first symbol of cell) was “+(odor)/+(8)” and the “Behavioral, motor, social and sensory traits” value (Tyr mice [3]; WT mice, data not shown) was “varied minor effects”. The Shank3-Adnp-actin interactions [4] was “NAP-mediated normalization”, the “Genotype/NAP effect on splenic gene expression” value (Tyr mice [5]; Tyr mice, males vs females) was “very minor genotype/NAP effect on males, and a more comprehensive effect on females” and the “NAP efficacy: gene expression patterns” value (Tyr mice [5]; [6]) was “+/+”. The “Number of RNA transcripts affected by the Tyr Adnp mutation, corrected by NAP treatment” value (Tyr mice [5]; female spleens) was 89 and the “Number of RNA transcripts affected by the Tyr Adnp mutation, corrected by NAP treatment” value (Tyr mice [5]; male spleens) was 13.
